# Assay results from US20240215587A1 (priority 2020, published 2024).
# Where two headings read alike, the source gives them in different places.
# Columns and labels:
# rice seeds = details: seed soaking 24 h, tested after 6 d
# [1] = tested on: pathogen of bacterial leaf streak (Xanthomonas oryzaes pv. Oryzicola); format: cell-based; details: for Inhibition rate of bacterial growth (%): immersed 24 h, growth observed after 3 d
structure (smiles),measurement,setting,value
"CCCCCCCCCCCC[N+](C)(C)Cc1ccccc1.[Br-] [Dodecyl dimethyl benzyl ammonium bromide, dodecyl dimethyl benzyl ammonium bromide]",Bud length (mm),rice seeds; multiple for dilution 1500,21 mm
same,Germination rate of seed (%),rice seeds; multiple for dilution 1500,55%
same,Root length (mm),rice seeds; multiple for dilution 1500,20 mm
same,Bud length (mm),rice seeds; multiple for dilution 2000,26 mm
same,Germination rate of seed (%),rice seeds; multiple for dilution 2000,56%
same,Root length (mm),rice seeds; multiple for dilution 2000,28 mm
same,inhibitory effect on the pathogen of bacterial leaf streak of rice (in words),[1]; dilutions 1:500 to 1:2000,a certain inhibitory effect
same,Inhibition rate of bacterial growth (%),[1]; multiple for dilution 500,41%
same,Inhibition rate of bacterial growth (%),[1]; multiple for dilution 1000,32%
same,Inhibition rate of bacterial growth (%),[1]; multiple for dilution 1500,30%
same,Inhibition rate of bacterial growth (%),[1]; multiple for dilution 2000,23%
